# Test: RP, Hichrom Alltima HP C18, 150 × 2.1 mm, 3 µm, 0.2 mL/min, estimated dead time 1.7 min; A: 90% water + 5% acetonitrile + 5% formic acid; B: acetonitrile; gradient (min/%B) 0/0 5/10 25/20 30/25 45/70 65/0
# Conditions: stereoisomer not certain
row,LC retention time [min],Structure (SMILES)
1,3.04,O=C(O)CC(O)(CC(=O)O)C(=O)O [citric acid]
2,14.4,OCC1OC(Oc2cc3c(O)cc(O)cc3[o+]c2-c2ccc(O)c(O)c2)C(O)C(O)C1O (configuration not stated) [cyanidin-3-O-glucoside]
3,27.6,"O=C(C=Cc1ccc(O)cc1)OCC1OC(Oc2cc3c(O)cc(=O)cc-3oc2-c2ccc(O)c(O)c2)C(O)C(O)C1O (stereo not drawn) [cyanidin-(coumaroyl)-3-O glucoside, trans isomer]"
4,12.5,OCC1OC(Oc2cc3c(O)cc(O)cc3[o+]c2-c2cc(O)c(O)c(O)c2)C(O)C(O)C1O (configuration not stated) [delfinidin-3-O-glucoside]
5,2.52,OCC1OC(OC2(CO)OC(CO)C(O)C2O)C(O)C(O)C1O (configuration not stated) [di-hexose (sucrose)]
6,19.8,CC1OC(OC2C(=O)c3c(O)cc(O)cc3OC2c2ccc(O)c(O)c2)C(O)C(O)C1O (configuration not stated) [dihydroquercetin-O-deoxyhexoside (astilbin)]
7,2.37,O=C(O)C(O)C(O)C(O)C(O)CO (configuration not stated) [gluconic acid]
8,3.04,NC(CCC(=O)NC(CS)C(=O)NCC(=O)O)C(=O)O (configuration not stated) [glutathione]
9,2.4,OCC1OC(O)C(O)C(O)C1O (configuration not stated) [hexose]
10,2.72,O=C(O)CC(O)C(=O)O (configuration not stated) [malic acid]
11,18,COc1cc(-c2oc3cc(=O)cc(O)c-3cc2OC2OC(CO)C(O)C(O)C2O)cc(OC)c1O (configuration not stated) [malvidin-3-O-glucoside]
12,3.53,O=C(OC1OC(CO)C(O)C(O)C1O)c1cc(O)c(O)c(O)c1 (configuration not stated) [monogalloyl glucose]
13,17.2,COc1cc(-c2[o+]c3cc(O)cc(O)c3cc2OC2OC(CO)C(O)C(O)C2O)ccc1O (configuration not stated) [peonidin-3-O-glucoside]
14,15.6,COc1cc(-c2[o+]c3cc(O)cc(O)c3cc2OC2OC(CO)C(O)C(O)C2O)cc(O)c1O (configuration not stated) [petunidin-3-O-glucoside]
15,20,O=C(O)C1OC(Oc2c(-c3ccc(O)c(O)c3)oc3cc(O)cc(O)c3c2=O)C(O)C(O)C1O (configuration not stated) [quercetin glucuronide]
16,2.52,O=C(O)C(O)C(O)C(=O)O (configuration not stated) [tartaric acid]
17,15.8,NC(Cc1cn(C2OC(CO)C(O)C(O)C2O)c2ccccc12)C(=O)O (configuration not stated) [tryptophan-N-glucoside]

# — the RepoRT retention time repository (doi:10.1186/gb-2013-14-6-r54)
